System: Saccharomyces cerevisiae S288C strain
Assay: Addition of peptide to medium of S288C strain; peptide content in dry cells and in extract by LC-MS/MS
Format: cell-based
Method: Absorbance of the obtained culture broth was measured, the culture broth was inoculated into SD medium (400 ml in a 2 L-volume conical flask with baffle fins, a pluratity of flasks) so that OD660 was 0.01 at the start of the culture (absorbance was measured by using DU640 SPECTROPHTOMETER, BECKMAN COULTER), and culture was performed at 30° C. for 19 hours with shaking by rotation at a velocity of 120 rpm. From the obtained culture broth, 400 OD units of the cells (1 OD unit is defined as cells contained in 1 ml of culture broth of which OD660 is 1) were collected by centrifugal separation. The supernatant was removed as much as possible, and the residual cells were suspended in 45 ml of Milli-Q water. The cells were collected again by centrifugal separation, and resuspended in 45 ml of Milli-Q water. By repeating this operation 3 times in total, the medium was completely removed from the cells. The washed cells were suspended in about 1.5 ml of Milli-Q water, and the suspension was heated at 70° C. for 10 minutes. By this step, the extractable components contained in the cells were extracted. Then, the extract and the cell residue were separated by centrifugation.
Cell debris were removed from the extract using a centrifugal filtration membrane of 10 kDa (Amicon Ultra—0.5 mL 10K, MILLIPORE, Catalogue Number UFC501096)), the obtained fraction was derivatized with the AQC reagent in the same manner as that used in Example 1, and γ-Glu-Val-Gly and γ-Glu-Val were measured by LC-MS/MS. Separately, the amount of GSH in the cells was measured in a conventional manner (GSH in the extract was derivatized by using a fluorescence reagent ABD-F that binds to thiol group, separated and quantified by HPLC). Furthermore, dry cell weight was measured after the washed cells were dried at 104° C. for 4 hours. From the amounts of γ-Glu-Val-Gly and γ-Glu-Val in the extract prepared from the cells that was contained in a certain volume of culture broth and dry cell weight measured as described above, the amount of these peptides based on weight of dried cells was calculated. […]
One loop of the S288C strain was inoculated into SD medium (50 ml in a 500 ml-volume Sakaguchi flask), and cultured at 30° C. for 24 hours with shaking at a velocity of 120 rpm. Absorbance of the obtained culture broth was measured, the culture broth was inoculated into SD medium (400 ml in a 2 L-volume conical flask with baffle fins, two or more flasks) so that OD660 was 0.01 at the start of the culture, and culture was performed at 30° C. for 19 hours with shaking by rotation at a velocity of 120 rpm. After 19 hours, γ-Glu-Val-Gly aqueous solutions of various concentrations were added to obtain predetermined concentrations, and the culture was continued for 1 hour. Using these culture broths, the γ-Glu-Val-Gly content in dry cells was calculated in the same manner as in Example 2. Furthermore, the solid content of the extract was calculated, and the amount of γ-Glu-Val-Gly in the solid content was also calculated. […]
The cells were collected from the total culture broth, and washed in the same manner as that of Example 2. The washed cells in an amount of 400 OD units were suspended in 1.5 ml of Milli-Q water. This suspension was maintained at 70° C. for 10 minutes to produce an extract from the yeast cells. Furthermore, the suspension was centrifuged to remove the cell residues and thereby collect only the extract. The γ-Glu-Val-Gly concentration of this extract (extract of addition experiment) was measured to be about 300 ppm, and solid content was about 1%. The γ-Glu-Val-Gly concentration in an extract prepared in the same way but without adding γ-Glu-Val-Gly to the culture broth (extract of no addition experiment) was below the quantitation limit, and solid content was about 1%.
One loop of the S288C strain was inoculated into SD medium (50 ml in a 500 ml-volume Sakaguchi flask), and cultured at 30° C. for 24 hours with shaking at a velocity of 120 rpm. […]

[1] = 0.01 ppm γ-Glu-Val-Gly added to medium after 19 hours, culture continued 1 hour
[2] = 0.1 ppm γ-Glu-Val-Gly added to medium after 19 hours, culture continued 1 hour
[3] = 1 ppm γ-Glu-Val-Gly added to medium after 19 hours, culture continued 1 hour
[4] = 5 ppm γ-Glu-Val-Gly added to medium after 19 hours, culture continued 1 hour
[5] = 10 ppm γ-Glu-Val-Gly added to medium after 19 hours, culture continued 1 hour
[6] = 100 ppm γ-Glu-Val-Gly added to medium after 19 hours, culture continued 1 hour

With `CC(C)[C@H](NC(=O)CC[C@H](N)C(=O)O)C(=O)NCC(=O)O` [γ-Glu-Val-Gly] the “γ-Glu-Val-Gly content in dry cells” value [1] was 5 ppm, the “γ-Glu-Val-Gly content in solid content of extract” value (“γ-Glu-Val-Gly content … of extract” for short) [1] was 21 ppm and the “γ-Glu-Val-Gly content in dry cells” value [2] was 28 ppm. For the same compound, the “γ-Glu-Val-Gly content … of extract” value [2] was 96 ppm, the “γ-Glu-Val-Gly content in dry cells” value [3] was 363 ppm and the “γ-Glu-Val-Gly content … of extract” value [3] was 1110 ppm. For the same compound, the “γ-Glu-Val-Gly content in dry cells” value [4] was 2647 ppm, the “γ-Glu-Val-Gly content … of extract” value [4] was 10119 ppm and the “γ-Glu-Val-Gly content in dry cells” value [5] was 5341 ppm. For the same compound, the “γ-Glu-Val-Gly content … of extract” value [5] was 17408 ppm, the “γ-Glu-Val-Gly concentration of extract” value (50 ppm γ-Glu-Val-Gly added after 19 hours, culture continued 1 hour, 400 OD units in 1.5 ml, solid content about 1%) was “about 300 ppm” and the “γ-Glu-Val-Gly content in dry cells” value [6] was 10191 ppm. The “γ-Glu-Val-Gly content … of extract” value [6] was 32183 ppm and the “γ-Glu-Val-Gly content in dry cells” value (γ-Glu-Val-Gly 100 ppm added to SD medium in advance, culture 16 hours) was “about 20,000 ppm”.
